Holding throughout (assay type): cell-based
For one assay, the system named is MRC-5 cell line. The assay can be described thus: Cell viability assay for MRC-5 cell line (EZ-Cytox). To be noted: Homo sapiens, MRC5, 120 h; MRC-5 normal cell line, 5 days, 10000 nM to 1.52 nM; N.D. = no cytotoxicity until 10 μM; read-out: Activity: IC50 value of Exemplary Compound to MRC-5 cell line. How it is done: 4. Cell Viability Assay for MRC-5 Cell Line
(1) Culture of MRC-5 Cell Line
Passage of cultured cells was maintained within P15.
(2) Treatment of Compounds of the Present Invention
Then, it was cultured in 37° C.
(3) Cytotoxicity Experiment
CO2 incubator for 4 hours.

The test system of the next assay is NCI-H526 cell line. The assay can be described thus: Cell viability assay for H526 cell (EZ-Cytox). To be noted: Homo sapiens, NCI-H526, 120 h; H526 cells, 5 days, 3000 nM to 0.46 nM. In a few lines:
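Read-out was EZ-Cytox colorimetric absorbance at 450 nm, taken after brief plate shaking, with IC50 derived. Before reading, H526 cells had been cultured with test compound for 5 days.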

The target of another assay is T1, PLK1 (Homo sapiens, UniProt P53350).
T1 construct: endogenous in cells; host or cells: HeLa LgBit (Plk1-HiBit KI): HeLa stably expressing LgBit, with a CRISPR/Cas9 knock-in of HiBit at the endogenous PLK1 locus
T1 sequence (P53350 whole entry): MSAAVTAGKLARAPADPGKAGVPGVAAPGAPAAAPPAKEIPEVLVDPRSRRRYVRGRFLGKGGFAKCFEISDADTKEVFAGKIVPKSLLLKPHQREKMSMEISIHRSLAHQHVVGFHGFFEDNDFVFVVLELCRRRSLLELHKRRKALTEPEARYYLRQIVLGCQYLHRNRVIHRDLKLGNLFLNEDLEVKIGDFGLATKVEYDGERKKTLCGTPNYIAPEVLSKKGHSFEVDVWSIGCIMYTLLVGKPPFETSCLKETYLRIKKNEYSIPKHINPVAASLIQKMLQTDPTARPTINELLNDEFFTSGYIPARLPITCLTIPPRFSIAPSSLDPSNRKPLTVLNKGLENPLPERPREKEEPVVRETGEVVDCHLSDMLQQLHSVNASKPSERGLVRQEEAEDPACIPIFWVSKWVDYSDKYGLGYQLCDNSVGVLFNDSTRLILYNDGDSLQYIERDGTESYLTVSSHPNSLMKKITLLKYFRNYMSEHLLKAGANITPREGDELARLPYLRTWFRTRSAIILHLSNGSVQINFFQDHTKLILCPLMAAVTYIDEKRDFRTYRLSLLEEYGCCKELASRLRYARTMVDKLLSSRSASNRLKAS
The experiment in a line: Luciferase assay for PLK1 in HeLa LgBit (Plk1-HiBit KI) cell line. The settings on record: 300 nM compound, luminescence after 9 hours. In outline:
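Luminescence, followed in real time after adding compound at 300 nM and Endurazine substrate, is reported relative to DMSO-treated wells. Cells are a HeLa LgBit line with a Plk1-HiBit knock-in, synchronized by 2 mM thymidine for 24 h, released, and cultured 18 h before treatment.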

For `COc1cc(C(=O)NC2CCN(C(=O)CCCNc3cccc4c3CN(C3CCC(=O)NC3=O)C4=O)CC2)ccc1Nc1ncc2c(n1)N(C1CCCC1)CC(F)(F)C(=O)N2C` (stereo not drawn) [Compound 26, 4-((9-cyclopentyl-7,7-difluoro-5-methyl-6-oxo-6,7,8,9-tetrahydro-5H-pyrimido[4,5-b][1,4]diazepin-2-yl)amino)-N-(1-(4-((2-(2,6-dioxopiperidin-3-yl)-1-oxoisoindolin-4-yl)amino)butanoyl)piperidin-4-yl)-3-methoxybenzamide], the half-maximal inhibitory concentration (IC50) in the assay with MRC-5 cell line is more than 10 µM; in the assay with NCI-H526 cell line it was less than 0.05 µM. In addition, the “Activity: ratio of the luminescense value of each Exemplary Compound treatment group to DMSO treatment group” value (“Activity: ratio” below) on PLK1 is on record as “++ (++<0.6)”.
The like results for `COc1cc(C(=O)NC2CCN(C(=O)CCCOc3cccc4c3C(=O)N(C3CCC(=O)NC3=O)C4=O)CC2)c(F)cc1Nc1ncc2c(n1)N(C1CCCC1)CC(F)(F)C(=O)N2C` (stereo not drawn) [Compound 30, 4-((9-cyclopentyl-7,7-difluoro-5-methyl-6-oxo-6,7,8,9-tetrahydro-5H-pyrimido[4,5-b][1,4]diazepin-2-yl)amino)-N-(1-(4-((2-(2,6-dioxopiperidin-3-yl)-1,3-dioxoisoindolin-4-yl)oxy)butanoyl)piperidin-4-yl)-2-fluoro-5-methoxybenzamide] were, in that order, more than 10 µM, less than 0.1 µM and “++ (++<0.6)”.
Turning to `COc1cc(C(=O)NC2CCN(C(=O)CCCOc3cccc4c3C(=O)N(C3CCC(=O)NC3=O)C4=O)CC2)ccc1Nc1ncc2c(n1)N(C1CCCC1)CC(F)(F)C(=O)N2C` (stereo not drawn) [Compound 31, 4-((9-cyclopentyl-7,7-difluoro-5-methyl-6-oxo-6,7,8,9-tetrahydro-5H-pyrimido[4,5-b][1,4]diazepin-2-yl)amino)-N-(1-(4-((2-(2,6-dioxopiperidin-3-yl)-1,3-dioxoisoindolin-4-yl)oxy)butanoyl)piperidin-4-yl)-3-methoxybenzamide], the IC50 is more than 10 µM with MRC-5 cell line and less than 0.1 µM in the assay with NCI-H526 cell line. In addition, the “Activity: ratio” value on PLK1 is recorded as “+++ (+++: <0.3)”.
Take `COc1cc(C(=O)NC2CCN(C(=O)CCCOc3cccc4c3CN(C3CCC(=O)NC3=O)C4=O)CC2)ccc1Nc1ncc2c(n1)N(C1CCCC1)CC(F)(F)C(=O)N2C` (stereo not drawn) [Compound 32, 4-((9-cyclopentyl-7,7-difluoro-5-methyl-6-oxo-6,7,8,9-tetrahydro-5H-pyrimido[4,5-b][1,4]diazepin-2-yl)amino)-N-(1-(4-((2-(2,6-dioxopiperidin-3-yl)-1-oxoisoindolin-4-yl)oxy)butanoyl)piperidin-4-yl)-3-methoxybenzamide]: the concentration for half-maximal inhibition (IC50) in the assay with MRC-5 cell line was more than 10 µM; with NCI-H526 cell line it was less than 0.05 µM. On PLK1, the “Activity: ratio” value is “++ (++<0.6)”.
The like results for `COc1cc(C(=O)NC2CCN(C(=O)COc3cccc4c3C(=O)N(C3CCC(=O)NC3=O)C4=O)CC2)ccc1Nc1ncc2c(n1)N(C1CCCC1)CC(F)(F)C(=O)N2C` (stereo not drawn) [Compound 38, 4-((9-cyclopentyl-7,7-difluoro-5-methyl-6-oxo-6,7,8,9-tetrahydro-5H-pyrimido[4,5-b][1,4]diazepin-2-yl)amino)-N-(1-(2-((2-(2,6-dioxopiperidin-3-yl)-1,3-dioxoisoindolin-4-yl)oxy)acetyl)piperidin-4-yl)-3-methoxybenzamide] were, in that order, more than 10 µM, less than 0.2 µM and “++ (++<0.6)”.
The like results for `COc1cc(C(=O)N[C@@H]2CCN(C(=O)COc3cccc4c3C(=O)N(C3CCC(=O)NC3=O)C4=O)C2)ccc1Nc1ncc2c(n1)N(C1CCCC1)CC(F)(F)C(=O)N2C` (stereo partly drawn) [Compound 39, 4-((9-cyclopentyl-7,7-difluoro-5-methyl-6-oxo-6,7,8,9-tetrahydro-5H-pyrimido[4,5-b][1,4]diazepin-2-yl)amino)-N-((3R)-1-(2-((2-(2,6-dioxopiperidin-3-yl)-1,3-dioxoisoindolin-4-yl)oxy)acetyl)pyrrolidin-3-yl)-3-methoxybenzamide] were, in that order, more than 10 µM, less than 0.1 µM and “++ (++<0.6)”.
The like results for `COc1cc(C(=O)N[C@H]2CCN(C(=O)COc3cccc4c3C(=O)N(C3CCC(=O)NC3=O)C4=O)C2)ccc1Nc1ncc2c(n1)N(C1CCCC1)CC(F)(F)C(=O)N2C` (stereo partly drawn) [Compound 40, 4-((9-cyclopentyl-7,7-difluoro-5-methyl-6-oxo-6,7,8,9-tetrahydro-5H-pyrimido[4,5-b][1,4]diazepin-2-yl)amino)-N-((3S)-1-(2-((2-(2,6-dioxopiperidin-3-yl)-1,3-dioxoisoindolin-4-yl)oxy)acetyl)pyrrolidin-3-yl)-3-methoxybenzamide] were, in that order, more than 10 µM, less than 0.2 µM and “++ (++<0.6)”.
On to `COc1cc(C(=O)NC2CCN(C(=O)CSc3cccc4c3C(=O)N(C3CCC(=O)NC3=O)C4=O)CC2)c(F)cc1Nc1ncc2c(n1)N(C1CCCC1)CC(F)(F)C(=O)N2C` (stereo not drawn) [Compound 41, 4-((9-cyclopentyl-7,7-difluoro-5-methyl-6-oxo-6,7,8,9-tetrahydro-5H-pyrimido[4,5-b][1,4]diazepin-2-yl)amino)-N-(1-(2-((2-(2,6-dioxopiperidin-3-yl)-1,3-dioxoisoindolin-4-yl)thio)acetyl)piperidin-4-yl)-2-fluoro-5-methoxybenzamide], for which the IC50 in the assay with MRC-5 cell line is more than 10 µM; with NCI-H526 cell line, less than 0.2 µM. In addition, the “Activity: ratio” value on PLK1 was “++ (++<0.6)”.
The like results for `COc1cc(C(=O)NC2CCN(C(=O)CC3CCN(c4cccc5c4C(=O)N(C4CCC(=O)NC4=O)C5=O)C3)CC2)c(F)cc1Nc1ncc2c(n1)N(C1CCCC1)CC(F)(F)C(=O)N2C` (stereo not drawn) [Compound 44, 4-((9-cyclopentyl-7,7-difluoro-5-methyl-6-oxo-6,7,8,9-tetrahydro-5H-pyrimido[4,5-b][1,4]diazepin-2-yl)amino)-N-(1-(2-(1-(2-(2,6-dioxopiperidin-3-yl)-1,3-dioxoisoindolin-4-yl)pyrrolidin-3-yl)acetyl)piperidin-4-yl)-2-fluoro-5-methoxybenzamide] were, in that order, more than 10 µM, less than 0.1 µM and “++ (++<0.6)”.
The like results for `COc1cc(C(=O)NC2CCN(C(=O)CC3CCN(c4ccc5c(c4)C(=O)N(C4CCC(=O)NC4=O)C5=O)C3)CC2)c(F)cc1Nc1ncc2c(n1)N(C1CCCC1)CC(F)(F)C(=O)N2C` (stereo not drawn) [Compound 45, 4-((9-cyclopentyl-7,7-difluoro-5-methyl-6-oxo-6,7,8,9-tetrahydro-5H-pyrimido[4,5-b][1,4]diazepin-2-yl)amino)-N-(1-(2-(1-(2-(2,6-dioxopiperidin-3-yl)-1,3-dioxoisoindolin-5-yl)pyrrolidin-3-yl)acetyl)piperidin-4-yl)-2-fluoro-5-methoxybenzamide] were, in that order, more than 10 µM, less than 0.1 µM and “++ (++<0.6)”.

One may read the IC50 as the concentration that gives 50% inhibition.

The values above are taken from patent publication US20250114460A1, “NOVEL PLK1 DEGRADATION INDUCING COMPOUND” (UPPTHERA, INC., priority 2021, published 2025).
